Source: the supplement of paper PMC10307832

Legend:
Assay in all cases: relative viability (nuclei count vs DMSO), 5 days (fraction); higher = more cells survive
[1] = compound: Cn1cc(-c2cnn3c(N)c(Br)c([C@@H]4CCCNC4)nc23)cn1 + O=C(CCCCCCC(=O)Nc1ccccc1)NO [Vorinostat] (partner 1 µM)
Procedure, shortened: (§1)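 Values are medians from duplicate plates. Each reflects relative viability, defined as the nuclei count of treated wells over that of vehicle wells. Lung cancer cell lines in 1536-well plates were pin-tool dosed one day after seeding with one drug alone or with a fixed anchor-drug dose plus five library-drug doses (not always all listed) in √10 steps, then fixed, stained and imaged at 4× after 5 days.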

[2] = compound: Cn1cc(-c2cnn3c(N)c(Br)c([C@@H]4CCCNC4)nc23)cn1 + Nc1nc2[nH]cc(CCc3ccc(C(=O)N[C@@H](CCC(=O)O)C(=O)O)cc3)c2c(=O)[nH]1 [Pemetrexed] (partner 0.2 µM)
Procedure, shortened: as §1

[3] = compound: Cn1cc(-c2cnn3c(N)c(Br)c([C@@H]4CCCNC4)nc23)cn1 + Cc1nc(Nc2ncc(C(=O)Nc3c(C)cccc3Cl)s2)cc(N2CCN(CCO)CC2)n1 [Dasatinib] (partner 0.075 µM)
Procedure, shortened: as §1

[4] = compound: Cn1cc(-c2cnn3c(N)c(Br)c([C@@H]4CCCNC4)nc23)cn1 + CC(=O)c1c(C)c2cnc(Nc3ccc(N4CCNCC4)cn3)nc2n(C2CCCC2)c1=O [Palbociclib] (partner 0.5 µM)
Procedure, shortened: as §1

| Cell Line | relative viability ([1]; first compound 0.05 µM) | relative viability ([1]; first compound 0.1581 µM) | relative viability ([1]; first compound 0.5 µM) | relative viability ([1]; first compound 1.581 µM) | relative viability ([1]; first compound 5 µM) | relative viability ([2]; first compound 0.05 µM) | relative viability ([2]; first compound 0.1581 µM) | relative viability ([2]; first compound 0.5 µM) | relative viability ([2]; first compound 1.581 µM) | relative viability ([2]; first compound 5 µM) | relative viability ([3]; first compound 0.05 µM) | relative viability ([3]; first compound 0.1581 µM) | relative viability ([3]; first compound 0.5 µM) | relative viability ([3]; first compound 1.581 µM) | relative viability ([3]; first compound 5 µM) | relative viability ([4]; first compound 0.05 µM) | relative viability ([4]; first compound 0.1581 µM) | relative viability ([4]; first compound 0.5 µM) | relative viability ([4]; first compound 1.581 µM) | relative viability ([4]; first compound 5 µM) |
| --- | --- | --- | --- | --- | --- | --- | --- | --- | --- | --- | --- | --- | --- | --- | --- | --- | --- | --- | --- | --- |
| NCI-H2126 | 0.694 | 0.788 | 0.762 | 0.683 | 0.68 | 0.662 | 0.756 | 0.753 | 0.566 | 0.454 | 0.581 | 0.58 | 0.568 | 0.506 | 0.488 | 0.338 | 0.332 | 0.363 | 0.347 | 0.408 |
| NCI-H2170 | 0.826 | 0.882 | 0.659 | 0.796 | 0.989 | 0.268 | 0.258 | 0.26 | 0.256 | 0.223 | 0.713 | 0.541 | 0.524 | 0.551 | 0.446 | 0.402 | 0.407 | 0.366 | 0.345 | 0.397 |
| NCI-H2228 | 0.636 | 0.592 | 0.507 | 0.345 | 0.155 | 0.315 | 0.33 | 0.311 | 0.22 | 0.155 | 0.572 | 0.66 | 0.459 | 0.294 | 0.241 | 1.03 | 0.872 | 0.541 | 0.393 | 0.252 |
| NCI-H2342 | 0.636 | 0.8 | 0.824 | 0.68 | 0.712 | 0.867 | 0.846 | 0.762 | 0.788 | 0.778 | 0.31 | 0.3 | 0.345 | 0.336 | 0.28 | 0.531 | 0.55 | 0.446 | 0.56 | 0.507 |
| NCI-H2347 | 0.525 | 0.585 | 0.511 | 0.482 | 0.4 | 0.408 | 0.394 | 0.418 | 0.502 | 0.338 | 0.319 | 0.255 | 0.285 | 0.324 | 0.209 | 0.41 | 0.442 | 0.421 | 0.39 | 0.43 |
| NCI-H2405 | 0.962 | 1.01 | 0.951 | 0.847 | 0.668 | 0.968 | 1.05 | 1.05 | 0.991 | 0.709 | 0.21 | 0.458 | 0.205 | 0.201 | 0.203 | 0.529 | 0.46 | 0.533 | 0.452 | 0.389 |
| NCI-H3122 | 0.999 | 1.12 | 0.987 | 0.88 | 1.11 | 0.196 | 0.169 | 0.158 | 0.147 | 0.164 | 0.905 | 0.833 | 0.614 | 0.84 | 0.64 | 0.169 | 0.164 | 0.227 | 0.182 | 0.163 |
| PC-3 [JPC-3] | 0.656 | 0.747 |  | 0.834 | 0.566 | 0.698 | 1.03 |  | 1.09 | 0.82 | 1.02 | 1.09 | 0.826 | 0.775 | 1.01 | 0.499 | 0.53 |  | 0.512 | 0.562 |
